Key:
[1] = tested on: EGFR T790M positive advanced non-small cell lung cancer; details: oral, 80 mg daily dose; patients progressed after prior systematic anti-tumor therapy; cited from earlier work
[2] = tested on: 18 Ba/F3 EGFR mutant cell lines; experiment: Anti-proliferation effect on 18 cell lines (overall result in words); type: cell-based; details: all 18 Ba/F3 EGFR mutant cell lines of Table 1
Text: The objective of the test example 1 was to evaluate the anti-proliferation effect of Furmonertinib mesilate on 18 cell lines (Ba/F3 EGFR-G719S, Ba/F3 EGFR-S768I, Ba/F3 EGFR-G724S, Ba/F3 EGFR-L718Q, Ba/F3 EGFR-Del19/G724S, Ba/F3 EGFR-E709H, Ba/F3 EGFR-L747S, Ba/F3 EGFR-E709V, Ba/F3 EGFR-L747V, Ba/F3 EGFR-E709-710>D, Ba/F3 EGFR-E709A, Ba/F3 EGFR-Del19/C797S, Ba/F3 EGFR-L858R/C797S, Ba/F3 EGFR-L747S/G719A, Ba/F3-EGFR-L858R-L718V, Ba/F3-EGFR-L858R-L718Q, Ba/F3-EGFR-E709K-G719A, and Ba/F3 EGFR-L861Q) using standard CellTiter-Glo® Luminescent Cell Viability Assay. Further, AZD9291 was used as control compound. […]
The cells during the logarithmic growth period were harvested and counted by using blood counting chamber. The cell viability was over 90% which was determined by trypan blue assay. […]
On Day 3, CellTiter-Glo® reagent (a luciferase ATP bioluminescence detection reagent) was thawed, and then the cell plate was equilibrated at room temperature for approximately 30 minutes. […] The luminescence was recorded by using Multi-mode Microplate Reader. […]

[3] = orally, once per day, 20 mg-240 mg; cited from earlier work
[4] = Body weight and safety in the Ba/F3 EGFR-G724S xenograft model; type: in vivo, B-NDG mice; details: 15, 30 and 50 mg/kg, orally, once per day, two weeks
Text: (§1) This study was used for evaluate the anti-tumor efficacy of furmonertinib mesilate in the female (B-NDG) immune deficiency mice bearing tumors of Ba/F3 EGFR-G724S engineered cells.
(§2) Experimental animals: B-NDG mice, female, 6-8 weeks, and weighing 18-20 g.
(§3) Animal modeling and random grouping: Ba/F3 EGFR-G724S cells were cultivated, cells were collected, and re-suspended and counted in serum-free medium, the re-suspended cells with the addition of a matrigel at 1:1 were subcutaneous inoculated at 1×10^6 cells/0.1 mL in B-NDG mice. When the average tumor volume was about 80-120 mm^3, the animals were randomly grouped into four experiment groups according to the tumor size. Each group contained 12 mice. The grouping day was defined as Day 0, i.e., D0.
The experimental scheme: B-NDG mice were subcutaneously inoculated with Ba/F3 EGFR-G724S cells to establish a cell-line-derived xenograft model. […] During the whole experiment, the body weight and the tumor sizes of the mice were measured twice each week, and whether or not the presence of toxic reactions was observed. […]

[5] = tested on: Ba/F3 EGFR-E709H; experiment: Anti-proliferation, CellTiter-Glo Luminescent Cell Viability Assay; type: cell-based; details: Mus musculus, BaF3, 72 h, 3 days
Text: (§4) The objective of the test example 1 was to evaluate the anti-proliferation effect of Furmonertinib mesilate on 18 cell lines (Ba/F3 EGFR-G719S, Ba/F3 EGFR-S768I, Ba/F3 EGFR-G724S, Ba/F3 EGFR-L718Q, Ba/F3 EGFR-Del19/G724S, Ba/F3 EGFR-E709H, Ba/F3 EGFR-L747S, Ba/F3 EGFR-E709V, Ba/F3 EGFR-L747V, Ba/F3 EGFR-E709-710>D, Ba/F3 EGFR-E709A, Ba/F3 EGFR-Del19/C797S, Ba/F3 EGFR-L858R/C797S, Ba/F3 EGFR-L747S/G719A, Ba/F3-EGFR-L858R-L718V, Ba/F3-EGFR-L858R-L718Q, Ba/F3-EGFR-E709K-G719A, and Ba/F3 EGFR-L861Q) using standard CellTiter-Glo® Luminescent Cell Viability Assay. Further, AZD9291 was used as control compound.
(§5) Cell culture: Ba/F3 EGFR-G719S, Ba/F3 EGFR-S768I, Ba/F3 EGFR-G724S, Ba/F3 EGFR-L718Q, Ba/F3 EGFR-Del19/G724S, Ba/F3 EGFR-E709H, Ba/F3 EGFR-L747S, Ba/F3 EGFR-E709V, Ba/F3 EGFR-L747V, Ba/F3 EGFR-E709-710>D, Ba/F3 EGFR-E709A, Ba/F3 EGFR-Del19/C797S, Ba/F3 EGFR-L858R/C797S, Ba/F3 EGFR-L747S/G719A, Ba/F3-EGFR-L858R-L718V, Ba/F3-EGFR-L858R-L718Q, Ba/F3-EGFR-E709K-G719A, and Ba/F3 EGFR-L861Q engineered cells were obtained from Kyinno, and maintained at 37° C. with 5% CO2, in the RPMI1640 media supplemented with 10% fetal bovine serum.
(§6) The cells during the logarithmic growth period were harvested and counted by using blood counting chamber. The cell viability was over 90% which was determined by trypan blue assay. The cell concentration was adjusted with culture medium. 90 μl cell suspensions was added to two 96-well plates to obtain the final cell density of 3000 cells per well. The plates were incubated in humidified incubator at 37° C. with 5% CO2.
(§7) The solution of tested compounds (Furmonertinib mesilate and AZD9291) was diluted 1000-fold with DMSO. Then, said DMSO solution was diluted 100-fold with PBS (Phosphate Buffered Saline) to obtain 10× working solution. And 10× reference control solution was prepared by Phosphate Buffered Saline (PBS). 10 μl working solution (10×) was dispensed to each well (triplicate for each concentration). (The top concentration was 3160 nM, 3.16-fold dilution and 10 different concentrations. The final concentration of DMSO in culture medium was 0.1% [v/v]). The plate was cultured for 3 days.
(§8) On Day 3, CellTiter-Glo® reagent (a luciferase ATP bioluminescence detection reagent) was thawed, and then the cell plate was equilibrated at room temperature for approximately 30 minutes. 100 μl CellTiter-Glo® Reagent which was equal to the volume of cell culture medium present in each well was added. The obtained content was mixed for 5 minutes on an orbital shaker to induce cell lysis. The cell plate was incubated at room temperature for 20 minutes to stabilize luminescent signal. The luminescence was recorded by using Multi-mode Microplate Reader.
(§9) [formula] • blank control: medium control; • vehicle control: culture medium with 0.1% DMSO
(§10) The graphical curves were fitted using a nonlinear regression model with a sigmoidal dose response.

[6] = tested on: Ba/F3 EGFR-E709-710 > D; experiment: as above; type: cell-based; details: Mus musculus, BaF3, 72 h, 3 days
Text: as §4, §5, §6, §7, §8, §9, §10

[7] = tested on: Ba/F3 EGFR-E709A; experiment: as above; type: cell-based; details: Mus musculus, BaF3, 72 h, 3 days
Text: as §4, §5, §6, §7, §8, §9, §10

[8] = tested on: Ba/F3 EGFR-L747S/G719A; experiment: as above; type: cell-based; details: Mus musculus, BaF3, 72 h, 3 days
Text: as §4, §5, §6, §7, §8, §9, §10

[9] = tested on: Ba/F3 EGFR-E709V; experiment: as above; type: cell-based; details: Mus musculus, BaF3, 72 h, 3 days
Text: as §4, §5, §6, §7, §8, §9, §10

[10] = tested on: Ba/F3 EGFR-L861Q; experiment: as above; type: cell-based; details: Mus musculus, BaF3, 72 h, 3 days
Text: as §4, §5, §6, §7, §8, §9, §10

[11] = tested on: Ba/F3-EGFR-L858R-L718Q; experiment: as above; type: cell-based; details: 72 h, 3 days
Text: as §4, §5, §6, §7, §8, §9, §10

[12] = tested on: Ba/F3 EGFR-L747S; experiment: as above; type: cell-based; details: Mus musculus, BaF3, 72 h, 3 days
Text: as §4, §5, §6, §7, §8, §9, §10

[13] = tested on: Ba/F3 EGFR-L747V; experiment: as above; type: cell-based; details: Mus musculus, BaF3, 72 h, 3 days
Text: as §4, §5, §6, §7, §8, §9, §10

[14] = tested on: Ba/F3 EGFR-L858R/C797S; experiment: as above; type: cell-based; details: Mus musculus, BaF3, 72 h, 3 days
Text: as §4, §5, §6, §7, §8, §9, §10

[15] = tested on: Ba/F3 EGFR-S768I; experiment: as above; type: cell-based; details: Mus musculus, BaF3, 72 h, 3 days
Text: as §4, §5, §6, §7, §8, §9, §10

[16] = tested on: Ba/F3-EGFR-E709K-G719A; experiment: as above; type: cell-based; details: 72 h, 3 days
Text: as §4, §5, §6, §7, §8, §9, §10

[17] = tested on: Ba/F3 EGFR-L718Q; experiment: as above; type: cell-based; details: Mus musculus, BaF3, 72 h, 3 days
Text: as §4, §5, §6, §7, §8, §9, §10

[18] = tested on: Ba/F3 EGFR-Del19/G724S; experiment: as above; type: cell-based; details: Mus musculus, BaF3, 72 h, 3 days
Text: as §4, §5, §6, §7, §8, §9, §10

[19] = tested on: Ba/F3 EGFR-Del19/C797S; experiment: as above; type: cell-based; details: Mus musculus, BaF3, 72 h, 3 days
Text: as §4, §5, §6, §7, §8, §9, §10

[20] = tested on: Ba/F3-EGFR-L858R-L718V; experiment: as above; type: cell-based; details: 72 h, 3 days
Text: as §4, §5, §6, §7, §8, §9, §10

[21] = tested on: Ba/F3 EGFR-G719S; experiment: as above; type: cell-based; details: Mus musculus, BaF3, 72 h, 3 days
Text: as §4, §5, §6, §7, §8, §9, §10

[22] = tested on: Ba/F3 EGFR-G724S; experiment: as above; type: cell-based; details: Mus musculus, BaF3, 72 h, 3 days
Text: as §4, §5, §6, §7, §8, §9, §10

[23] = tested on: Ba/F3 EGFR-G724S; experiment: Anti-tumor effect in Ba/F3 EGFR-G724S (KC-1385) cell xenograft model; type: in vivo, B-NDG mice; details: orally, once per day, two weeks
Text: as §1, §2, §3
The experimental scheme: B-NDG mice were subcutaneously inoculated with Ba/F3 EGFR-G724S cells to establish a cell-line-derived xenograft model. The experiment was divided into 15 mg/kg group of furmonertinib mesilate, 30 mg/kg group of furmonertinib mesilate, 50 mg/kg group of furmonertinib mesilate and vehicle group, wherein each group contained 12 animals, orally administered with the administration volume of 10 uL/g, and the vehicle group was administered with the same amount of vehicle, the administration was carried out once per day and lasted for two weeks. During the whole experiment, the body weight and the tumor sizes of the mice were measured twice each week, and whether or not the presence of toxic reactions was observed.
Tumor Volume (TV) was calculated by: TV=0.5*a*b^2, where a was the long diameter of the tumor and b was the short diameter of the tumor.
The curves for the tumor volume change of four experimental groups were shown in FIG. 1, and the curves for the body weight change of four experimental groups were shown in FIG. 2.

IC50 [5]: 31.3 nM | IC50 [6]: 89.6 nM | IC50 [7]: 17.9 nM | IC50 [8]: 16.5 nM | IC50 [9]: 14.3 nM | IC50 [10]: 3.8 nM | IC50 [11]: 289 nM | IC50 [12]: 15 nM | IC50 [13]: 31.6 nM | IC50 [14]: 2210 nM | IC50 [15]: 21.6 nM | IC50 [16]: 39 nM | IC50 [17]: 501 nM | IC50 [18]: 3.84 nM | IC50 [19]: 1220 nM | IC50 [20]: 23.9 nM | IC50 [21]: 12.1 nM | IC50 [22]: 21.3 nM
SMILES: C=CC(=O)Nc1cc(Nc2nccc(-c3cn(C)c4ccccc34)n2)c(OCC(F)(F)F)nc1N(C)CCN(C)C [Furmonertinib mesilate]
anti-tumor effect [1]: relatively good anti-tumor effect | disease progression [1]: can alleviate or stabilize the disease progression | anti-proliferation effect [2]: good anti-proliferation effect | adverse events of subjects [3]: mild or moderate | dose-related toxic reaction [3]: does not occur | tolerance and safety [3]: the tolerance and the safety are good | effect on the body weight of mice [4]: little effect on the body weight of mice | safety [4]: good safety | anti-tumor activity ([23]; 15 mg/kg): moderate anti-tumor activity | anti-tumor activity ([23]; 30 mg/kg): extremely significant anti-tumor activity | anti-tumor activity ([23]; 50 mg/kg): extremely significant anti-tumor activity
